Where “and” joins values, the source holds several entries; their conditions need not be identical. Equal entries are not always repeated. Where two headings read alike, the source gives them in different places.
Legend:
CHRM1 = target: T1, CHRM1 (Homo sapiens, UniProt P11229); experiment: SAFETYscan Calcium Flux CHRM1 Agonist; format: cell-based
T1 sequence (P11229 1-460): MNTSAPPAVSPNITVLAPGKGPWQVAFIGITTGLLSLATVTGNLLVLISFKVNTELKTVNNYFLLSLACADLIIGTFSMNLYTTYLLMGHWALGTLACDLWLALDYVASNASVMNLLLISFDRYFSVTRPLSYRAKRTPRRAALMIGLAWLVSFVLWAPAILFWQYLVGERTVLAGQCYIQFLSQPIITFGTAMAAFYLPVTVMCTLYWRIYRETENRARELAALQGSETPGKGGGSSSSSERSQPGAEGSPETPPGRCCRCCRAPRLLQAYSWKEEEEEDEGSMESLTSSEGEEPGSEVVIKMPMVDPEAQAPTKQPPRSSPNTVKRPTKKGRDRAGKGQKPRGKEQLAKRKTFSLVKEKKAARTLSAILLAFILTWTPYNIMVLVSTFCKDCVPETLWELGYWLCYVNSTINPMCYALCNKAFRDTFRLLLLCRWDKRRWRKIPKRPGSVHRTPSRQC
From the text: (§1) Supplement jm3c00155_si_002.xlsx, sheet "SAFETYScan" | column: RC50 (uM); Max Response

ADRA1A = target: T2, ADRA1A (Homo sapiens, UniProt P35348); experiment: SAFETYscan Calcium Flux ADRA1A Agonist; format: cell-based
T2 sequence (P35348 1-466): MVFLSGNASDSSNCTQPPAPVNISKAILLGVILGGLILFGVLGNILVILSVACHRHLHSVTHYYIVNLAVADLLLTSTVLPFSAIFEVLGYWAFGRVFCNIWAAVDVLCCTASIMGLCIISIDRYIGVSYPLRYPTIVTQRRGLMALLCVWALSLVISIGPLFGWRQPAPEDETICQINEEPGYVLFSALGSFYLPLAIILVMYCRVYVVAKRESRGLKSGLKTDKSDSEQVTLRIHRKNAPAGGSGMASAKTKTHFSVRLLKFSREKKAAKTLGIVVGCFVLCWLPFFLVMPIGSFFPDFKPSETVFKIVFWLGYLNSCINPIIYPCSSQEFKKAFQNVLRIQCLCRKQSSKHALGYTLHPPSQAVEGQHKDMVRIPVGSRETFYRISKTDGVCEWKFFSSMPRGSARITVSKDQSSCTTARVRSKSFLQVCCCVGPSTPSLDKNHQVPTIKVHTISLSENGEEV
From the text: as §1

HTR1A = target: T3, HTR1A (Homo sapiens, UniProt P08908); experiment: SAFETYscan cAMP HTR1A Agonist; format: cell-based
T3 sequence (P08908 1-422): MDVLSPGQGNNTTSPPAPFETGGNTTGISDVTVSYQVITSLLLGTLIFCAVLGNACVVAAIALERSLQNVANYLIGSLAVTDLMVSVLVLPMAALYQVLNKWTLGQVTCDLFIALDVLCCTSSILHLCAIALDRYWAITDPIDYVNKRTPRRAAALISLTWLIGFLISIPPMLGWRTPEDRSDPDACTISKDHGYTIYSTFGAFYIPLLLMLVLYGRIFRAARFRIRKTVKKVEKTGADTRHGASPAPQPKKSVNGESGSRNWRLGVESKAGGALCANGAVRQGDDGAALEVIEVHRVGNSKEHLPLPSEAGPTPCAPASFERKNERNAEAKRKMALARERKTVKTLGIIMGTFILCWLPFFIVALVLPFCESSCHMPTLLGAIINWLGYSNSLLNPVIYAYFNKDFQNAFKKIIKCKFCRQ
From the text: as §1

OCI-Ly3 = experiment: 14-day cell proliferation assay, OCI-Ly3; format: cell-based; conditions: Homo sapiens, 14-day assay, BCL6-independent line
From the text: (§2) DMSO final concentration.
(§3) After a short centrifugation the
(1st emission filter) / 450-80 nm (2nd emission filter). The % inhibition at each test concentration was […]
sigmoidal four-parameter logistic fit equation.
2.3 Cell proliferation assay
Aldrich) supplemented with 10% FBS (Gibco). Compounds were initially dispensed into 96-well U-bottom […]
transferred onto the cells.
Assay plates containing cells
(Beckman Coulter). The volume of medium containing 2500 cells in the control well was calculated and this volume of cells was transferred from every well of the assay plates to the corresponding well of the fresh plates containing compound. After 14 days, CellTiter Glo reagent (Promega) was added to the medium in each well of the assay plate at a ratio of 1:2, mixed on a plate shaker, then incubated at room temperature for 10 minutes. Luminescence was measured using an Envision plate reader (Perkin Elmer) and the relative luminescence at each compound concentration, compared to DMSO alone, was calculated. GI50 were determined using a 4-parameter curve fit in Dotmatics (Bishops Stortford, UK).

[1] = target: T4, BCL6-SMRT (NCOR2) corepressor protein-protein interaction (Homo sapiens, UniProt P41182); experiment: NanoBRET cellular assay (HEK293T); format: cell-based
T4 construct: DNA encoding full length BCL6 and SMRT; expressed in transfected cells; host or cells: HEK293T
Experimental: Test compounds in DMSO or DMSO alone
concentration in 0.7% v/v DMSO final.
(also called NCOR2) corepressor protein-protein interaction. DNA encoding full length BCL6 and SMRT
fusion proteins BCL6-nanoLuc and SMRT-HaloTag, respectively. HEK293T cells were plated […] in T75
At the time of assay, compounds
dispensing (Labcyte Inc.). Frozen transfected HEK293T cells were thawed, centrifuged and freezing
as §2, §3
(1st emission filter) / 450-80 nm (2nd emission filter). The % inhibition at each test concentration was
sigmoidal four-parameter logistic fit equation. […]

CNR1 = CNR1 (Homo sapiens, UniProt P21554); experiment: SAFETYscan cAMP CNR1 Antagonist; format: cell-based
From the text: as §1

AChE = AChE (Homo sapiens, UniProt P22303); experiment: SAFETYscan Enzymatic AChE Inhibitor; format: biochemical
From the text: as §1

AVPR1A = AVPR1A (Homo sapiens, UniProt P37288); experiment: SAFETYscan Calcium Flux AVPR1A Antagonist; format: cell-based
From the text: as §1

ADORA2A = ADORA2A (Homo sapiens, UniProt P29274); experiment: SAFETYscan Calcium Flux ADORA2A Antagonist; format: cell-based
From the text: as §1

DRD2S = DRD2S (Homo sapiens, UniProt P14416); experiment: SAFETYscan cAMP DRD2S Agonist; format: cell-based
From the text: Supplement jm3c00155_si_002.xlsx, sheet "SAFETYScan" | column: RC50 (uM); Hill; Max Response

Chain of DRD2S (P14416 1-414 isoform P14416-2): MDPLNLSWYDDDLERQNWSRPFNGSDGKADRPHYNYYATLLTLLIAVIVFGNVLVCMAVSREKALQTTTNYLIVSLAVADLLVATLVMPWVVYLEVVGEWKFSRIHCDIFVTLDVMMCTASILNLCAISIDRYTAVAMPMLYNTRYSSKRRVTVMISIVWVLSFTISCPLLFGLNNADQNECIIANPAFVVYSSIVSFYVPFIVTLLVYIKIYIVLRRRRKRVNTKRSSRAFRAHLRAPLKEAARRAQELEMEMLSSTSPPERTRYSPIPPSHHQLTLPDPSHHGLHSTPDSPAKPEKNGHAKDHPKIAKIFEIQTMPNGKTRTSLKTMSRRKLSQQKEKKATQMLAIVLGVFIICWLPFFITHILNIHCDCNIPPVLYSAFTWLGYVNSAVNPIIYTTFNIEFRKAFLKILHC
Chain of CNR1 (P21554 whole entry): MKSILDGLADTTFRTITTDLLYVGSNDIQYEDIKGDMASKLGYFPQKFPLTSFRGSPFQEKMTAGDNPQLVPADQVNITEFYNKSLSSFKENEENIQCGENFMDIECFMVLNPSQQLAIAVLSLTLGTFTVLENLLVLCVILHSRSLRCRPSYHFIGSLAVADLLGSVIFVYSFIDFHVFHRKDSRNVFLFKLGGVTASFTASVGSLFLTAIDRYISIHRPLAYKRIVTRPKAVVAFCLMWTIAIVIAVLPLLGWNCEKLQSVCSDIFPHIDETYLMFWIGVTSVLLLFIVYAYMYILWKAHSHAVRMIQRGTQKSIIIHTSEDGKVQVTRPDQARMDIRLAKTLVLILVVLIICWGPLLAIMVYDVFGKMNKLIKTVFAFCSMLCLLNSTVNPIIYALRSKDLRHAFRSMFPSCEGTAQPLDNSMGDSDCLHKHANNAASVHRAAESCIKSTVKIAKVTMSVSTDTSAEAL
Chain of ADORA2A (P29274 whole entry): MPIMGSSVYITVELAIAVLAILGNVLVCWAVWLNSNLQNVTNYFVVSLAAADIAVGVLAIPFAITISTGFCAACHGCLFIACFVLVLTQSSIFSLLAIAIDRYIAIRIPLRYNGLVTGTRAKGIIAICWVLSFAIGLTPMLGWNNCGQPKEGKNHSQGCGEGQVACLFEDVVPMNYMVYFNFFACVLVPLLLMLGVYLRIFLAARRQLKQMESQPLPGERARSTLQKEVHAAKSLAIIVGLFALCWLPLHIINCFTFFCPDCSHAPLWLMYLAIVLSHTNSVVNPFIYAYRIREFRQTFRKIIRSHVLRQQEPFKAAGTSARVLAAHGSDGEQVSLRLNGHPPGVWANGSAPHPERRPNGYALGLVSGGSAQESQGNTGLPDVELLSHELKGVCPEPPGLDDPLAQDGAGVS
Chain of AChE (P22303 32-614): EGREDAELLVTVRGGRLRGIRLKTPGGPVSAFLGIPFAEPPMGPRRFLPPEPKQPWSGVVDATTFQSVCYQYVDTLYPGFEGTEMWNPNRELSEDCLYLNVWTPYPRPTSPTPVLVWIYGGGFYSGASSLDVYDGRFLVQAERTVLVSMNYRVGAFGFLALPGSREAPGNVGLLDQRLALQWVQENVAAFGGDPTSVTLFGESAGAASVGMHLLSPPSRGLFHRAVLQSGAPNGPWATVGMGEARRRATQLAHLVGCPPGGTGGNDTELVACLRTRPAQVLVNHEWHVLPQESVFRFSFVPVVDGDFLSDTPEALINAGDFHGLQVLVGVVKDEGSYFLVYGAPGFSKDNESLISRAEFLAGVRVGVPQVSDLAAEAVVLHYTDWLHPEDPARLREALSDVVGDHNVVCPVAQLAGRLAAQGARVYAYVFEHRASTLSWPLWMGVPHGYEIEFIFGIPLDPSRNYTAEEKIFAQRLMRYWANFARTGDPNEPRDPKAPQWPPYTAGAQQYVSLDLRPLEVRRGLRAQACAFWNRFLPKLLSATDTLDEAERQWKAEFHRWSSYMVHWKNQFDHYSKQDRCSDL
Chain of AVPR1A (P37288 whole entry): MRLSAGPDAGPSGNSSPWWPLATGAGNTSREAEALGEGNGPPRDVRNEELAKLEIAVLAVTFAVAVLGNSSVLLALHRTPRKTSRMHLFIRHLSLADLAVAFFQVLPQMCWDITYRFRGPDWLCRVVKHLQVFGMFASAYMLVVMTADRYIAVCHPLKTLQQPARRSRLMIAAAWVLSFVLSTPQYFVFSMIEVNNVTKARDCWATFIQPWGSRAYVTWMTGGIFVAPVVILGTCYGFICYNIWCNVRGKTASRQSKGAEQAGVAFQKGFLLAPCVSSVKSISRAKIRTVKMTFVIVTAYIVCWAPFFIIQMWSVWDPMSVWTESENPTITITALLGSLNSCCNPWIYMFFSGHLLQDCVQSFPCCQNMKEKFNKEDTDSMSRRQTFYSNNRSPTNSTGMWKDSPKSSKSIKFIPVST

Structure (SMILES): Cn1c(=O)c2c(c3cc(Nc4ccnc(F)c4Cl)ccc31)N[C@@H](C1CC1)C(F)(F)CO2 [compound 17, (S)-10-((3-chloro-2-fluoropyridin-4-yl)amino)-2-cyclopropyl-3,3-difluoro-7-methyl-1,2,3,4-tetrahydro-[1,4]oxazepino[2,3-c]quinolin-6(7H)-one]
- EC50 (CHRM1): > 10000 nM
- Emax (CHRM1; CHRM1, Calcium Flux, Agonist, read-out: Max Response): 1.44%
- EC50 (ADRA1A): > 10000 nM
- Emax (ADRA1A; ADRA1A, Calcium Flux, Agonist, read-out: Max Response): 0%
- EC50 (HTR1A): > 10000 nM
- Emax (HTR1A; HTR1A, cAMP, Agonist, read-out: Max Response): 45.6%
- GI50 (OCI-Ly3): 1850 nM
- IC90 ([1]; HEK-293T, Table S2, read-out: BCL6 NanoBRET IC90 individual replicates): 140 nM
- calculated free (unbound) cellular IC90 ([1]; HEK-293T, calculated free cellular IC90 from NanoBRET assay): 48 nM
- IC90 ([1]; HEK-293T, geometric mean of at least three replicates, read-out: NanoBRET IC90): 140 nM
- BCL6 NanoBRET pIC50 mean ([1]; Table S2): 7.6643
- IC50 ([1]; geometric mean of at least three replicates, read-out: NanoBRET IC50): 22 nM
- IC50 ([1]; single replicates, Table S2, listed as CCT374705, 17, read-out: BCL6 NanoBRET IC50 individual replicates): 21.8 nM and 22.2 nM
- IC50 ([1]; single replicates, Table S2, read-out: BCL6 NanoBRET IC50 individual replicates): 25.1 nM and 17.3 nM and 24.3 nM and 18.4 nM and 20.9 nM and 24.2 nM and 77.1 nM and 15.6 nM and 11.1 nM and 15.4 nM and 40.7 nM and 25.3 nM and 23.2 nM and 13 nM and 32.6 nM and 29.5 nM and 10.1 nM and 12.1 nM and 44.2 nM and 19.7 nM and 14.6 nM and 25.2 nM
- IC50 ([1]; supplement, read-out: BCL6 NanoBRET IC50 Geometric Mean): 21.7 nM
- IC50 (CNR1): > 10000 nM
- Emax (CNR1; CNR1, cAMP, Antagonist, read-out: Max Response): 0%
- Emax (AChE; read-out: Max Response): 9.89%
- IC50 (AChE; read-out: RC50 (IC50)): > 10000 nM
- Emax (AVPR1A; read-out: Max Response): 2.15%
- IC50 (AVPR1A; read-out: RC50 (IC50)): > 10000 nM
- Emax (ADORA2A; read-out: Max Response): 10.4%
- IC50 (ADORA2A; read-out: RC50 (IC50)): > 10000 nM
- EC50 (DRD2S): 3500 nM
- Hill (DRD2S; DRD2S, cAMP, Agonist): 1.25
- Emax (DRD2S; DRD2S, cAMP, Agonist, read-out: Max Response): 72.1%

Reference: PMC10150366, “Discovery of an In Vivo Chemical Probe for BCL6 Inhibition by Optimization of Tricyclic Quinolinones” (Journal of Medicinal Chemistry, 2023)
